These results are taken from publication PMC10865860 (mBio, 2023).

The target in test [1] is T1, SARS-CoV-2 3CLpro (Severe acute respiratory syndrome coronavirus 2, UniProt P0DTD1). Conditions: read-out: IC50 SARS-CoV-2 (3CLpro); cited from earlier work.
The subject of test [2] is SARS-CoV-2 replicon. Conditions: cited from earlier work.
Test [3] concerns the target T2, cathepsin L (Homo sapiens, UniProt P07711).
T2 construct: purchased AnaSpec
In words: biochemical.

Test [4] deals with SARS-CoV-2 pseudoviruses in cells expressing hACE2 plus TMPRSS2. In words: microbe, parasite or virus in culture. The conditions noted are these: Severe acute respiratory syndrome coronavirus 2, HEK-293T, read-out: EC50 Pseudovirus entry assay hACE2+ TMPRSS2. The class given is cell-based.
Test [5] addresses T3, cathepsin D (Homo sapiens, UniProt P07339).
T3 construct: purchased Abcam
Description: biochemical.

The target in test [6] is T4, neutrophil elastase (Homo sapiens, UniProt P08246).
T4 construct: purchased Sigma-Aldrich
T4 sequence (P08246 30-267): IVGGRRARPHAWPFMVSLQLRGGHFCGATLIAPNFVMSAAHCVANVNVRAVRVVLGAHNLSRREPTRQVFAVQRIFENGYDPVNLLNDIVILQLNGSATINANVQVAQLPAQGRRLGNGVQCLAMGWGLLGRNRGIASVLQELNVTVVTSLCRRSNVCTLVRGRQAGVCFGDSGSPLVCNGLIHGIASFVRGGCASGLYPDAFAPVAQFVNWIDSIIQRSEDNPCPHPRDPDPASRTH
In words: biochemical.

In test [7] the target is T5, cathepsin G (Homo sapiens, UniProt P08311).
T5 construct: purchased Novus Biological
T5 sequence (P08311 21-255): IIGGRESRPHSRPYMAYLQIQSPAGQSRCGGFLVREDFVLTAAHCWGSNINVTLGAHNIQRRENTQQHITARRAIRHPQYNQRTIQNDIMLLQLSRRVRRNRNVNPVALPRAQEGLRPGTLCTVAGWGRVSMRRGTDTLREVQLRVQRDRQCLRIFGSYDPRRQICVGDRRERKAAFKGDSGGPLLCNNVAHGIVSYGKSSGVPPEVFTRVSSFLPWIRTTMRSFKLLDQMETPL
In words: biochemical.

In test [8] the target is T6, MERS-CoV 3CLpro (Middle East respiratory syndrome-related coronavirus, UniProt K9N7C7). Conditions: read-out: IC50 MERS-CoV (3CLpro); cited from earlier work.
Test [9] concerns SARS-CoV-2 pseudoviruses in cells expressing hACE2. Description: microbe, parasite or virus in culture. Conditions: Severe acute respiratory syndrome coronavirus 2, HEK-293T, read-out: EC50 Pseudovirus entry assay hACE2. The class given is cell-based.
The target of test [10] is T7, thrombin (Homo sapiens, UniProt P00734).
T7 construct: purchased AnaSpec
Description: biochemical.

Test [11] relates to chymotrypsin. The class given is biochemical, human.
Test [12] addresses T8, cathepsin B (Homo sapiens, UniProt P07858).
T8 construct: purchased Abcam
Description: biochemical.

Test [13] relates to SARS-CoV-2 replicon. Description: microbe, parasite or virus in culture. The class given is cell-based. Conditions: Severe acute respiratory syndrome coronavirus 2, read-out: EC50 SARS-CoV-2 replicon. (In antiviral work, replicon cells carry a viral genome segment that copies itself.)
The target in test [14] is T1, SARS-CoV-2 3CLpro. Description: biochemical.
Test [15] concerns the target T6, MERS-CoV 3CLpro. In words: biochemical.

Like-named read-outs stand apart in the source and are kept apart here. Where a SMILES comes first, the peptide text is derived from it. The star is where a group is joined. Cbz = O=C(OCc1ccccc1)*

T6 sequence (K9N7C7 3248-3553 limits assumed): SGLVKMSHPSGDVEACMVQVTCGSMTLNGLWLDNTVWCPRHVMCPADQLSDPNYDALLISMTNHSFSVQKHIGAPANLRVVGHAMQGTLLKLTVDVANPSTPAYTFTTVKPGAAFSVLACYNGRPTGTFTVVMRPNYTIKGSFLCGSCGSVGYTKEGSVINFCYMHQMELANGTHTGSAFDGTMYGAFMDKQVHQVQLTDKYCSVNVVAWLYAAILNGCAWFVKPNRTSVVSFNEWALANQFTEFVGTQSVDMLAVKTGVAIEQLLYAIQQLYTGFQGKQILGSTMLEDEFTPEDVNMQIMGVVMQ
T3 sequence (P07339 65-412): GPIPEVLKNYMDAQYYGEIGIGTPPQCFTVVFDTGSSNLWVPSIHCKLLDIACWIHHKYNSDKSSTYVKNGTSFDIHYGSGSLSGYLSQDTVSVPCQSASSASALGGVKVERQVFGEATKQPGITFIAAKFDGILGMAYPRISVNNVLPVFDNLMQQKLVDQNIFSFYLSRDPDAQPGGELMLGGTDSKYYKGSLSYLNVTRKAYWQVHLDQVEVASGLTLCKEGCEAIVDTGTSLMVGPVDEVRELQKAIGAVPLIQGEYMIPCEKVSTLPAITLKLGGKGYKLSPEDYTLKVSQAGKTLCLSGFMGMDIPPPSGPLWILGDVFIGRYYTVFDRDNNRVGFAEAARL
T2 sequence (P07711 114-333): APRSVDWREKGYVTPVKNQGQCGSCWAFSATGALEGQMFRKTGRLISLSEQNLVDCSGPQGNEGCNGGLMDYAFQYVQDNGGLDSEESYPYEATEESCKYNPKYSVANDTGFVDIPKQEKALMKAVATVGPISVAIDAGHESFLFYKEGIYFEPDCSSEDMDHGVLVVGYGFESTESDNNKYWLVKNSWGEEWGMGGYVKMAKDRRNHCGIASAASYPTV

A word on the IC50: it is the point on the concentration scale where inhibition reaches its midpoint. In general, EC50 refers to the concentration needed to bring the measured effect to its halfway point. In the case of `CC(C)CC(NC(=O)OCC1CC1c1cccc(F)c1)C(=O)NC(C=O)CC1CCNC1=O` (stereo not shown) [5c], the IC50 in test [1] is 0.18 ± 0.03 µM; in test [3], 0.03 ± 0.01 µM; in test [5] it was greater than 50 µM; in test [6] it was greater than 50 µM; in [7], greater than 50 µM; in [8], 0.08 ± 0.03 µM. Moreover, the IC50 in test [10] is greater than 50 µM; in test [11], greater than 50 µM; in test [12], 0.24 ± 0.05 µM. The EC50 was 0.012 µM in test [2], greater than 50 µM in test [4] and 0.06 ± 0.03 µM in test [9].

For `CC(C)CC(NC(=O)OCC1CC1c1cccc(F)c1)C(=O)NC(CC1CCNC1=O)C(O)S(=O)(=O)O` (stereo not shown) [5d], the IC50 in test [1] is 0.19 ± 0.02 µM; in [3], 0.02 ± 0.02 µM; in [5], greater than 50 µM; in test [6], greater than 50 µM; in [7], greater than 50 µM; in test [8], 0.07 ± 0.03 µM. Besides, the IC50 in test [10] was greater than 50 µM; in test [11], greater than 50 µM; in [12], 0.23 ± 0.08 µM. For the same molecule, the EC50 was greater than 50 µM in test [4] and 0.05 ± 0.02 µM in test [9].

Consider `COc1ccccc1C1CC1COC(=O)NC(CC(C)C)C(=O)NC(C=O)CC1CCNC1=O` (stereo not shown) [11c], for which the IC50 in test [1] is 0.14 ± 0.04 µM; in test [3] it was 0.03 ± 0.01 µM; in test [5], greater than 50 µM; in test [6] it was greater than 50 µM; in test [7], greater than 50 µM; in test [8], 0.12 ± 0.11 µM. For the same molecule, the values for the half-maximal inhibitory concentration (IC50) in [10], in test [11] and in test [12] were greater than 50 µM, greater than 50 µM and 0.31 ± 0.05 µM, respectively. In addition, the concentration for a half-maximal effect (EC50) in [4] is greater than 50 µM; in test [9] it was 0.13 ± 0.03 µM.

Take `COc1ccccc1C1CC1COC(=O)NC(CC(C)C)C(=O)NC(CC1CCNC1=O)C(O)S(=O)(=O)O` (stereo not shown) [11d]: the IC50 in test [1] is 0.14 ± 0.05 µM; in test [3], 0.02 ± 0.02 µM; in [5], greater than 50 µM; in [6], greater than 50 µM; in test [7], greater than 50 µM; in test [8], 0.07 ± 0.01 µM. For the same molecule, the half-inhibitory concentration (IC50) in [10] was greater than 50 µM; in test [11], greater than 50 µM; in [12] it was 0.27 ± 0.06 µM. Also, the 50% effective concentration (EC50) in test [2] was 0.012 µM; in test [4], greater than 50 µM; in test [9], 0.12 ± 0.05 µM.

Regarding `CC(C)[C@H](NC(=O)OCc1ccccc1)C(=O)N[C@H](C=O)Cc1ccccc1` [MDL28170] (Cbz-Val-Phe-aldehyde), the concentration giving a half-maximal response (EC50) in [13] is greater than 50 µM; in [4], greater than 50 µM; in test [9], 0.01 ± 0.03 µM. For the same molecule, the 50% inhibitory concentration (IC50) in test [14] and in test [15] was greater than 50 µM in each case.

With `N=C(N)c1ccc2cc(OC(=O)c3ccc(N=C(N)N)cc3)ccc2c1` [Nafamostat], the EC50 in test [13] and in test [9] was greater than 50 µM throughout. For the same molecule, the half-inhibitory concentration (IC50) in [14] and in test [15] was greater than 50 µM in each case.
